Test results published in ChEMBL document CHEMBL6083217, “Identification of isoquinolinone DHODH inhibitor isosteres” (Bioorg Med Chem Lett, 2024).
Values after ≈ are worked out from the molar mass of the structure shown.

Legend:
[1] = Metabolic stability in human liver microsomes assessed as half life; type: ADME, Microsome
[2] = Metabolic stability in mouse liver microsomes assessed as half life; type: ADME, Microsome
[3] = Solubility of compound at pH 7; type: physicochemical; details: buffer
[4] = test system: MOLM-13; experiment: cells; details: Homo sapiens, MOLM-13, 72 h
Description: Antiproliferative activity against human MOLM-13 cells assessed as inhibition of cell viability incubated for 72 hrs by Cell Titer Glo assay

[5] = Solubility of compound in SGF at pH 1; type: physicochemical
[6] = Solubility of compound in FaSSIF at pH 6.5; type: physicochemical
[7] = Protein binding in human plasma; type: ADME, cell-free; details: read-out: PPB (converted)
[8] = Protein binding in mouse plasma; type: ADME, cell-free; details: read-out: PPB (converted)
[9] = Unbound clearance in C57BL mouse at 10 mg/kg, po or 2 mg/kg, iv; type: ADME, organism-based; details: in vivo
[10] = Volume of distribution at steady state in C57BL mouse at 10 mg/kg, po or 2 mg/kg, iv; type: ADME, organism-based; details: in vivo
[11] = Half life in C57BL mouse at 10 mg/kg, po or 2 mg/kg, iv; type: ADME, organism-based; details: in vivo
[12] = Cmax in C57BL mouse at 10 mg/kg, po or 2 mg/kg, iv; type: ADME, organism-based; details: in vivo
[13] = Tmax in C57BL mouse at 10 mg/kg, po or 2 mg/kg, iv; type: ADME, organism-based; details: in vivo
[14] = AUC (0 to infinity) in C57BL mouse at 10 mg/kg, po or 2 mg/kg, iv; type: ADME, organism-based; details: in vivo
[15] = Oral bioavailability in C57BL mouse at 10 mg/kg; type: ADME, organism-based; details: in vivo

Row | half-life [1] | half-life [2] | solubility [3] | IC50 [4] | solubility at 24 h [5] | solubility at 24 h [6] | fraction unbound [7] | fraction unbound [8] | CL free [9] | Vdss [10] | half-life [11] | Cmax [12] | Tmax [13] | AUC(0-inf) [14] | bioavailability [15] | SMILES
1 | > 180 min | > 180 min | < 4 µM |  |  |  |  |  |  |  |  |  |  |  |  | CCn1c(CO)nn(-c2cc3c(C(C)C)cn(-c4c(F)cccc4Cl)c(=O)c3cc2F)c1=O
2 |  |  |  | 0.86 nM |  |  |  |  |  |  |  |  |  |  |  | CCn1c(CO)nn(-c2cc3c(cc2F)C(=O)N(c2c(F)cccc2Cl)CN3C(C)C)c1=O
3 |  |  |  | 19 nM |  |  |  |  |  |  |  |  |  |  |  | CCn1c(CO)nn(-c2cc3c(cc2F)C(=O)N(c2ccccc2C)C[C@H]3C(C)C)c1=O
4 | > 180 min | > 180 min | < 4 µM | 1.6 nM |  |  |  |  |  |  |  |  |  |  |  | CCn1c(CO)nn(-c2cc3c([C@H](C)C(F)(F)F)nn(-c4ccccc4C)c(=O)c3cc2F)c1=O
5 | > 180 min | > 180 min | 83 µM (≈ 36.2 µg/mL) | 9.3 nM |  |  |  |  |  |  |  |  |  |  |  | CCn1c(CO)nn(-c2cc3c(cc2F)c(=O)c(-c2ccccc2C)cn3C(C)C)c1=O
6 | 140 min | > 180 min |  | 0.72 nM | 43 µg/mL (≈ 98.5 µM) | 198 µg/mL (≈ 454 µM) | 0.049 | 0.032 | 245 mL/min/kg | 2.12 L/kg | 242 min | 3210 ng/mL | 0.67 h | 21800 ng·h/mL | 102% | CCn1c(CO)nn(-c2cc3c(C(C)C)cc(-c4ccccc4C)c(=O)n3cc2F)c1=O
7 | > 180 min | > 180 min | > 400 µM | 29 nM |  |  |  |  |  |  |  |  |  |  |  | CCn1c(CO)nn(-c2cc3c(cc2F)c(=O)c(-c2c(F)cccc2Cl)cn3C(C)C)c1=O
8 | > 180 min | > 180 min | 133 µM (≈ 58.3 µg/mL) | 3.3 nM |  |  |  |  |  |  |  |  |  |  |  | CCn1c(CO)nn(-c2nc3c(C(C)C)nn(-c4ccccc4C)c(=O)c3cc2F)c1=O
9 | > 180 min | > 180 min | > 400 µM | 0.72 nM | 78 µg/mL (≈ 178 µM) | 99 µg/mL (≈ 226 µM) | 0.122 | 0.134 | 40.7 mL/min/kg | 1.94 L/kg | 273 min | 4260 ng/mL | 0.83 h | 35100 ng·h/mL | 111% | CCn1c(CO)nn(-c2cc3c(C(C)C)nn(-c4ccccc4C)c(=O)c3cc2F)c1=O
10 | 179 min | > 180 min | < 4 µM | 1.4 nM |  |  |  |  |  |  |  |  |  |  |  | CCn1c(CO)nn(-c2cc3c([C@@H](C)C(F)(F)F)nn(-c4ccccc4C)c(=O)c3cc2F)c1=O
11 | > 180 min | > 180 min | 259 µM (≈ 123 µg/mL) | 0.39 nM |  |  |  |  |  |  |  |  |  |  |  | C=C(C)c1nn(-c2c(F)cccc2Cl)c(=O)c2cc(F)c(-n3nc(CO)n(CC)c3=O)cc12
12 | > 180 min | > 180 min | 371 µM (≈ 162 µg/mL) |  | 25 µg/mL (≈ 57.3 µM) | 67 µg/mL (≈ 153 µM) | 0.099 | 0.088 | 41.4 mL/min/kg | 1.64 L/kg | 341 min | 6170 ng/mL | 1.67 h | 57200 ng·h/mL | 125% | CCn1c(CO)nn(-c2cc3c(C(C)C)cn(-c4ccccc4C)c(=O)c3cc2F)c1=O
13 | > 180 min | > 180 min | < 4 µM | 0.39 nM |  |  | 0.044 | 0.025 | 144 mL/min/kg | 1.43 L/kg | 301 min | 5730 ng/mL | 1.67 h | 50400 ng·h/mL | 103% | CCn1c(CO)nn(-c2cc3c(C(C)C)nn(-c4c(F)cccc4Cl)c(=O)c3cc2F)c1=O
14 |  |  |  | 8.2 nM |  |  |  |  |  |  |  |  |  |  |  | CCn1c(CO)nn(-c2cc3c(cc2F)C(=O)N(c2ccccc2C)C[C@@H]3C(C)C)c1=O
15 |  |  |  | 0.47 nM |  |  |  |  |  |  |  |  |  |  |  | CCn1c(CO)nn(-c2cc3c(cc2F)C(=O)C(c2ccccc2C)CN3C(C)C)c1=O (configuration not stated)
